The record followed here is ChEMBL document CHEMBL5505982, “Design, synthesis, biological evaluation and in silico studies of novel quinoline derivatives as potential radioprotective molecules targeting the TLR2 and p53 pathways” (Eur J Med Chem, 2024).

The subject of assay [1] is AHH-1. Put plainly: Cytotoxicity against human AHH-1 cells assessed as inhibition of cell growth incubated for 24 hrs by CCK-8 assay. The class given is functional, cell-based. The following applies: AHH-1, 24 h. In general terms: Formazan colour is commonly taken as a measure of viable cells.
Assay [2] has as its system AHH-1. Put plainly: Anti-iradiation activity against human AHH-1 cells assessed as cell viability at 10 micromol preincubated with compound for 24 hrs followed by irradiation with 8 Gy and measured after 24 hrs by CCK-8 assay. It counts as functional. The following applies: dose 10 µmol; time 48 hrs.
Assay [3] relates to Mus musculus. Put plainly: Radioprotective activity in C57BL/6J mouse assessed as survival rate at 30 mg/kg, ip preincubated with compound for 15 to 1440 mins followed by irradiation and measured at day 30. It counts as functional. The following applies: light or radiation study, time 15-44640 min.
Assay [4] relates to AHH-1. Put plainly: Induction of apoptosis in human AHH-1 cells assessed as viable cells preincubated with compound for 24 hrs followed by irradiation with 4 Gy and measured after 24 hrs of radiation by Annexin V-FITC/PI staining based flow cytometry analysis (reference value: 66.9 %). The note with it: time 48 hrs. The class given is functional. A general note: Flow cytometry measures light scatter and fluorescence of single cells or particles in a stream.

Assay [5] deals with Mus musculus. Description: Radioprotective activity in irradiated C57BL/6J mouse model assessed as increase in RBC count at 300 mg/kg, ip preincubated with compound for 15 to 1440 mins followed by irradiation with 6.5 Gy and measured after 13 days of radiation. The class given is functional, organism-based. The following applies: Erythrocyte, time 15-20160 min.
The test system of assay [6] is AHH-1. Description: Induction of apoptosis in human AHH-1 cells assessed as viable cells preincubated with compound for 24 hrs followed by irradiation with 6 Gy and measured after 24 hrs of radiation by Annexin V-FITC/PI staining based flow cytometry analysis (reference value: 52.3%). It counts as functional. The note with it: time 48 hrs.
Assay [7] has as its system AHH-1. Put plainly: Induction of apoptosis in human AHH-1 cells assessed as early apoptotic cells preincubated with compound for 24 hrs followed by irradiation with 6 Gy and measured after 24 hrs of radiation by Annexin V-FITC/PI staining based flow cytometry analysis (reference value: 14.1%). It counts as functional. The following applies: time 48 hrs.
The subject of assay [8] is Mus musculus. Put plainly: Radioprotective activity in irradiated C57BL/6J mouse model assessed as increase in WBC count at 300 mg/kg, ip preincubated with compound for 15 to 1440 mins followed by irradiation with 6.5 Gy and measured on day 1 (reference value: 43.39%). The class given is functional. The following applies: time 15-2880 min.
The test system of assay [9] is AHH-1. Put plainly: Induction of apoptosis in human AHH-1 cells assessed as necrotic cells preincubated with compound for 24 hrs followed by irradiation with 8 Gy and measured after 24 hrs of radiation by Annexin V-FITC/PI staining based flow cytometry analysis (reference value: 4.86%). It counts as functional. The note with it: time 48 hrs.
The subject of assay [10] is Mus musculus. Put plainly: Radioprotective activity in irradiated C57BL/6J mouse model assessed as increase in HGB count at 300 mg/kg, ip preincubated with compound for 15 to 1440 mins followed by irradiation with 6.5 Gy and measured after 1 to 10 days of radiation. It counts as functional, organism-based.
For assay [11], the system named is Mus musculus. Description: Radioprotective activity in irradiated C57BL/6J mouse model assessed as increase in RBC count at 300 mg/kg, ip preincubated with compound for 15 to 1440 mins followed by irradiation with 6.5 Gy and measured after 10 to 13 days of radiation. The class given is functional, organism-based. The note with it: Erythrocyte.
Assay [12] concerns Mus musculus. Put plainly: Radioprotective activity in irradiated C57BL/6J mouse model assessed as increase in platelets count at 300 mg/kg, ip preincubated with compound for 15 to 1440 mins followed by irradiation with 6.5 Gy and measured after 3 to 10 days of radiation. The class given is functional, organism-based.
The subject of assay [13] is AHH-1. Put plainly: Induction of apoptosis in human AHH-1 cells assessed as late apoptotic cells preincubated with compound for 24 hrs followed by irradiation with 6 Gy and measured after 24 hrs of radiation by Annexin V-FITC/PI staining based flow cytometry analysis (reference value: 29.8%). It counts as functional. The following applies: time 48 hrs.
Assay [14] relates to AHH-1. Put plainly: Induction of apoptosis in human AHH-1 cells assessed as early apoptotic cells preincubated with compound for 24 hrs followed by irradiation with 4 Gy and measured after 24 hrs of radiation by Annexin V-FITC/PI staining based flow cytometry analysis (reference value: 14.3%). It counts as functional. The note with it: time 48 hrs.
Assay [15] deals with Mus musculus. Description: Radioprotective activity in irradiated C57BL/6J mouse model assessed as increase in HGB count at 300 mg/kg, ip preincubated with compound for 15 to 1440 mins followed by irradiation with 6.5 Gy and measured after 13 days of radiation. The note with it: time 15-20160 min. It counts as functional, organism-based.
Assay [16] relates to AHH-1. Put plainly: Induction of apoptosis in human AHH-1 cells assessed as necrotic cells preincubated with compound for 24 hrs followed by irradiation with 4 Gy and measured after 24 hrs of radiation by Annexin V-FITC/PI staining based flow cytometry analysis (reference value: 1.06%). The note with it: time 48 hrs. It counts as functional.
Assay [17] concerns Mus musculus. Description: Radioprotective activity in irradiated C57BL/6J mouse model assessed as increase in platelets count at 300 mg/kg, ip preincubated with compound for 15 to 1440 mins followed by irradiation with 6.5 Gy and measured after 2 days of radiation. It counts as functional, organism-based. The note with it: time 15-4320 min.
The test system of assay [18] is AHH-1. Description: Induction of apoptosis in human AHH-1 cells assessed as early apoptotic cells preincubated with compound for 24 hrs followed by irradiation with 8 Gy and measured after 24 hrs of radiation by Annexin V-FITC/PI staining based flow cytometry analysis (reference value: 16.5%). It counts as functional. The following applies: time 48 hrs.
Assay [19] relates to AHH-1. Put plainly: Induction of apoptosis in human AHH-1 cells assessed as viable cells preincubated with compound for 24 hrs followed by irradiation with 8 Gy and measured after 24 hrs of radiation by Annexin V-FITC/PI staining based flow cytometry analysis (reference value: 45.1%). It counts as functional. The following applies: time 48 hrs.
For assay [20], the system named is AHH-1. Put plainly: Induction of apoptosis in human AHH-1 cells assessed as late apoptotic cells preincubated with compound for 24 hrs followed by irradiation with 4 Gy and measured after 24 hrs of radiation by Annexin V-FITC/PI staining based flow cytometry analysis (reference value: 17.7%). It counts as functional. The following applies: time 48 hrs.
The subject of assay [21] is AHH-1. Description: Induction of apoptosis in human AHH-1 cells assessed as necrotic cells preincubated with compound for 24 hrs followed by irradiation with 6 Gy and measured after 24 hrs of radiation by Annexin V-FITC/PI staining based flow cytometry analysis (reference value: 3.71%). It counts as functional. The following applies: time 48 hrs.
Assay [22] relates to Mus musculus. Put plainly: Radioprotective activity in irradiated C57BL/6J mouse model assessed as increase in platelets count at 300 mg/kg, ip preincubated with compound for 15 to 1440 mins followed by irradiation with 6.5 Gy and measured after 10 to 13 days of radiation. The class given is functional, organism-based.
The subject of assay [23] is AHH-1. Put plainly: Induction of apoptosis in human AHH-1 cells assessed as late apoptotic cells preincubated with compound for 24 hrs followed by irradiation with 8 Gy and measured after 24 hrs of radiation by Annexin V-FITC/PI staining based flow cytometry analysis (reference value: 33.6%). It counts as functional. The note with it: time 48 hrs.

Active and inactive are the calls of the source. The rule behind the calls is not given here. A value given as a limit tells only on which side of the number the result lay.

As a reminder, the IC50 is the midpoint of a concentration-inhibition curve. For the molecule `O=S(=O)(Cc1ccc(Cl)cc1)c1ccc2cc(Cl)ccc2n1`, in assay [1], the IC50 was > 640 µM.
With `N#Cc1ccc(CS(=O)(=O)c2ccc3cc(Cl)ccc3n2)cc1`, the concentration for half-maximal inhibition (IC50) in assay [1] is > 640 µM.
The same measure, in the same setting: for `Fc1ccc(CSc2ccc3cc(Cl)ccc3n2)cc1` the value was 153 µM; for `[O-][S+](Cc1ccc(Cl)cc1)c1ccc2ccccc2n1` (centres undefined), 97 µM.
With `Clc1ccc(CSc2ccc3cc(Cl)ccc3n2)cc1`, the 50% inhibitory concentration (IC50) in [1] is > 640 µM.
On the same count and under the same terms, the result for `O=C(O)c1ccc(CSc2ccc3cc(Cl)ccc3n2)cc1` reads > 640 µM; that for `Clc1ccc(CSc2ccc3ccccc3n2)cc1`, 73 µM.
Take `O=C(O)c1ccc(C[S+]([O-])c2ccc3cc(F)ccc3n2)cc1` (centres undefined): in assay [2], the Activity was 30.18%. Also, in assay [1], the IC50 is > 640 µM. Moreover, the survival at 30 mg/kg in assay [3] turned out to be 50%.
Take `[O-][S+](Cc1ccc(Br)cc1)c1ccc2ccccc2n1` (centres undefined): in assay [1], the IC50 was > 640 µM.
Still for that read-out and setting: the result for `O=S(=O)(Cc1ccc(Br)cc1)c1ccc2cc(Br)ccc2n1` reads > 640 µM.
On the same count and under the same terms, for `N#Cc1ccc(CSc2ccc3cc(Br)ccc3n2)cc1` the value was 146 µM; for `Fc1ccc(CSc2ccc3cc(F)ccc3n2)cc1`, > 640 µM; for `O=C(O)c1ccc(CS(=O)(=O)c2ccc3cc(F)ccc3n2)cc1`, > 640 µM.
As for `Fc1ccc(CSc2ccc3cc(Br)ccc3n2)cc1`, the Activity in assay [2] is 26.21%. Moreover, the 50% inhibitory concentration (IC50) in assay [1] was > 640 µM.
Consider `Brc1ccc(CSc2ccc3cc(Br)ccc3n2)cc1`, for which the 50% inhibitory concentration (IC50) in assay [1] was > 640 µM.
On the same count and under the same terms, for `Brc1ccc2nc(SCc3ccccc3)ccc2c1` the value was > 640 µM; for `O=S(=O)(Cc1ccccc1)c1ccc2cc(Br)ccc2n1`, 169 µM; for `N#Cc1ccc(C[S+]([O-])c2ccc3cc(Br)ccc3n2)cc1` (centres undefined), 212 µM.
Same read-out and setting: the result for `[O-][S+](Cc1ccc(Br)cc1)c1ccc2cc(Br)ccc2n1` (centres undefined) reads > 640 µM.
On the same count and under the same terms, for `[O-][S+](Cc1ccccc1)c1ccc2cc(Br)ccc2n1` (centres undefined) the value was > 640 µM.
Take `Clc1ccc2nc(SCc3ccc(Br)cc3)ccc2c1`: the concentration for half-maximal inhibition (IC50) in assay [1] was > 640 µM.
Same read-out and setting: the result for `Clc1ccc(CSc2ccc3cc(Br)ccc3n2)cc1` reads 215 µM; that for `[O-][S+](Cc1ccc(F)cc1)c1ccc2cc(Cl)ccc2n1` (centres undefined), > 640 µM.
Regarding `O=S(=O)(Cc1ccc(F)cc1)c1ccc2cc(Br)ccc2n1`, in assay [1], the half-inhibitory concentration (IC50) was > 640 µM.
`O=S(=O)(Cc1ccc(Cl)cc1)c1ccc2cc(Br)ccc2n1`: the Activity in assay [2] was found to be 27.81%. In addition, the IC50 in assay [1] was > 640 µM.
Take `O=S(=O)(Cc1ccc(Cl)cc1)c1ccc2ccccc2n1`: the IC50 in [1] amounted to 129 µM.
On the same count and under the same terms, the result for `Brc1ccc(CSc2ccc3ccccc3n2)cc1` reads 174 µM; that for `Fc1ccc(CSc2ccc3ccccc3n2)cc1`, > 640 µM; that for `O=S(=O)(Cc1ccccc1)c1ccc2cc(F)ccc2n1`, > 640 µM.
For the molecule `[O-][S+](Cc1ccc(Cl)cc1)c1ccc2cc(Br)ccc2n1` (centres undefined), the Activity in [2] stood at 30.63%. For the same molecule, the IC50 in assay [1] came out at 224 µM.
For the molecule `N#Cc1ccc(CSc2ccc3cc(Cl)ccc3n2)cc1`, in assay [1], the half-maximal inhibitory concentration (IC50) is > 640 µM.
With `O=S(=O)(Cc1ccc(F)cc1)c1ccc2cc(F)ccc2n1`, the Activity in assay [2] was 27.51%. Further, the IC50 in assay [1] is > 640 µM.
Regarding `O=C([O-])c1ccc(/C=C/S(=O)(=O)Cc2ccc(Cl)cc2)cc1.[Na+]` [RECILISIB SODIUM], the Activity is given as 47.5% in assay [4]; 49.2% in assay [6]; 14.8% in assay [7]; 47.73% in [8]; 8.35% in [9]; 28.4% in assay [13]. Moreover, the Activity in assay [14] came out at 16.5%; in assay [16] it was 4.82%; in assay [18], 16.4%; in [19], 48%; in assay [20], 31.1%; in assay [21] it was 7.68%. Besides, the Activity in [23] was 27.3%. Further, the outcome in assay [5], in assay [11], in assay [15], in [17] and in assay [22] was Active. The IC50 in [1] was > 640 µM. Further, the outcome in [10] and in assay [12] was inactive. Besides, the survival at 30 mg/kg in assay [3] was 40%.
With `Fc1ccc2nc(SCc3ccccc3)ccc2c1`, in [1], the IC50 is > 640 µM.
Same read-out and setting: the result for `[O-][S+](Cc1ccc(Cl)cc1)c1ccc2cc(Cl)ccc2n1` (centres undefined) reads > 640 µM.
On the same count and under the same terms, for `O=S(=O)(Cc1ccc(Br)cc1)c1ccc2cc(Cl)ccc2n1` the value was > 640 µM; for `[O-][S+](Cc1ccc(F)cc1)c1ccc2cc(F)ccc2n1` (centres undefined), > 640 µM.
Same read-out and setting: the result for `[O-][S+](Cc1ccc(Br)cc1)c1ccc2cc(Cl)ccc2n1` (centres undefined) reads > 640 µM.
With `[O-][S+](Cc1ccc(F)cc1)c1ccc2ccccc2n1` (centres undefined), the IC50 in assay [1] is > 640 µM.
On the same count and under the same terms, for `N#Cc1ccc(C[S+]([O-])c2ccc3cc(Cl)ccc3n2)cc1` (centres undefined) the value was > 640 µM.
Still for that read-out and setting: for `O=S(=O)(Cc1ccc(F)cc1)c1ccc2cc(Cl)ccc2n1` the value was > 640 µM; for `O=S(=O)(Cc1ccc(Br)cc1)c1ccc2ccccc2n1`, > 640 µM.
